Laboratory results: ChEMBL document CHEMBL4130413, “1-Aryl-1H- and 2-aryl-2H-1,2,3-triazole derivatives blockade P2X7 receptor in vitro and inflammatory response in vivo” (Eur J Med Chem, 2017)
The source made the active and inactive calls. The rule behind the calls is not given here.

Experiments:
Peritoneal macrophage = assay: Toxicity in Swiss mouse peritoneal macrophages assessed as LDH release at 10 uM after 60 mins relative to 0.05% Triton X-100; format: cell-based; details: 1 h
[1] = biological target: T1, P2X purinoceptor 7 (Homo sapiens) (UniProt Q99572); assay: Antagonist activity at human P2X7 receptor expressed in HEK293 cells assessed as inhibition of ATP-induced ethidium iodide uptake at 10 uM preincubated for 10 mins followed by ATP addition measured after 20 mins by FLIPR assay relative to 1 mM ATP; format: cell-based
T1 sequence (whole entry): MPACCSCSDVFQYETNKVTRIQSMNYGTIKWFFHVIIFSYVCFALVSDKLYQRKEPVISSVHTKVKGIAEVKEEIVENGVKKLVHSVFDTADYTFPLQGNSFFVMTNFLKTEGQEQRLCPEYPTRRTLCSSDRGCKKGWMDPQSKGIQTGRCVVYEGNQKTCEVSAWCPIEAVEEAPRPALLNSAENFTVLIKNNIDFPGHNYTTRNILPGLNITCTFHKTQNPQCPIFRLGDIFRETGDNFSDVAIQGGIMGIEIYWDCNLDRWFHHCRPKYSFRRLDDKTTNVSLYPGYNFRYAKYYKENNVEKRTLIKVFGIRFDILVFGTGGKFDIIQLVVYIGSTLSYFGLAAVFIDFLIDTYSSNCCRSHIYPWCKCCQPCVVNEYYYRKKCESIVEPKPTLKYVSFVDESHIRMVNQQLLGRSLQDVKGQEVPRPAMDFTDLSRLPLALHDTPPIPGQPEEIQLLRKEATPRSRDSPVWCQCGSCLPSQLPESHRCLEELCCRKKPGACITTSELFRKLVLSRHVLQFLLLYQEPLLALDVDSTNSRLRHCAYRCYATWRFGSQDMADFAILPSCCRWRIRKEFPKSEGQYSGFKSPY

[2] = biological target: P2X purinoceptor 7 (Mus musculus) (UniProt Q9Z1M0); assay: Antagonist activity at P2X7 receptor in Swiss mouse peritoneal macrophages assessed as inhibition of ATP-induced propidium iodide uptake at 10 uM after 30 mins by FLIPR assay relative to 1 mM ATP
[3] = biological target: T2, P2X purinoceptor 7 (Mus musculus) (UniProt Q9Z1M0); assay: (§1) Antagonist activity at P2X7 receptor in Swiss mouse peritoneal macrophages assessed as inhibition of ATP-induced propidium iodide uptake after 25 mins by flow cytometric analysis
T2 sequence (whole entry): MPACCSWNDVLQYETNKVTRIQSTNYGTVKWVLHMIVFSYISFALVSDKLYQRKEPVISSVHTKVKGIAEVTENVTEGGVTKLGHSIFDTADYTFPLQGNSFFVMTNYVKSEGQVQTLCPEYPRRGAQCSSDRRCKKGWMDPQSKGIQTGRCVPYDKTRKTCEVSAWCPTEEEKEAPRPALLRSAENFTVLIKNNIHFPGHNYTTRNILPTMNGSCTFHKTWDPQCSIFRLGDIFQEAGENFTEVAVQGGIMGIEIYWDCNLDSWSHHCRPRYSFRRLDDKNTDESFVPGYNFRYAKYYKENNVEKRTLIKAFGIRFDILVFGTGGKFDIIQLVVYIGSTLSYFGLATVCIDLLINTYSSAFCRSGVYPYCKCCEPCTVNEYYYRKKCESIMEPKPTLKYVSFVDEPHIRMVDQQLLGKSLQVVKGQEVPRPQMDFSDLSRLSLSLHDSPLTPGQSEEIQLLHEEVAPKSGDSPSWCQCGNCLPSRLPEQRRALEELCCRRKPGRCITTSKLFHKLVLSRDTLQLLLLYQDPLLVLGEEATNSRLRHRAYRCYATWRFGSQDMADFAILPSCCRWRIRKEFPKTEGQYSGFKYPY

P2X purinoceptor 7 [4] = biological target: T3, P2X purinoceptor 7 (Mus musculus, UniProt Q9Z1M0); assay: as §1
T3 sequence (Q9Z1M0 whole entry): T2 sequence (whole entry)

P2X purinoceptor 7 [5] = biological target: T3, P2X purinoceptor 7; assay: Antagonist activity at P2X7 receptor in Swiss mouse peritoneal macrophages assessed as inhibition of ATP-induced current at holding potential of -60 mV preincubated for 5 mins followed by ATP addition measured after 5 mins by Whole cell patch-clamp analysis
[6] = Cytotoxicity against Swiss mouse peritoneal macrophages after 24 hrs by LDH-release assay; format: cell-based, Peritoneal macrophage
P2X purinoceptor 7 [7] = biological target: T4, P2X purinoceptor 7 (Homo sapiens, UniProt Q99572); assay: Antagonist activity at human P2X7 receptor expressed in HEK293 cells assessed as inhibition of ATP-induced ethidium iodide uptake preincubated for 10 mins followed by ATP addition measured after 20 mins by spectrofluorometric analysis; format: cell-based
T4 sequence (Q99572 whole entry): T1 sequence (whole entry)

[8] = biological target: T2, P2X purinoceptor 7 (Mus musculus); assay: Antagonist activity at mouse P2X7 receptor expressed in HEK293 cells assessed as inhibition of ATP-induced ethidium iodide uptake at 10 uM preincubated for 10 mins followed by ATP addition measured after 20 mins by FLIPR assay relative to 1 mM ATP; format: cell-based

| SMILES | Activity (Peritoneal macrophage) | inhibition [1] | inhibition [2] | inhibition [3] | IC50 (P2X purinoceptor 7 [4]) | IC50 (P2X purinoceptor 7 [5]) | CC50 at 24 h [6] | IC50 (P2X purinoceptor 7 [7]) | inhibition [8] |
| --- | --- | --- | --- | --- | --- | --- | --- | --- | --- |
| CCOCc1cn(-c2ccccc2)nn1 | 52.73% | 56.7% | 49.3% |  |  |  |  |  |  |
| CCCCCC(=O)OCc1cn(-c2ccccc2)nn1 | 15.83% | 18.2% | 44.6% |  |  |  |  |  |  |
| CCCCOCc1cnn(-c2ccccc2)n1 | 27.19% | 16.1% | 37.1% |  |  |  |  |  |  |
| CCCCOCc1cn(-c2cc(Cl)ccc2Cl)nn1 | 11.66% | 90.1% | 79.8% | Dose-dependent effect | 317 nM | 316 nM | 505 nM | 621 nM |  |
| OCc1cnn(-c2ccccc2)n1 | 9.18% | 90.2% | 84.2% | Dose-dependent effect | 96 nM | 81 nM | 2360 nM | 522 nM | Active |
| OCc1cn(-c2cc(Cl)cc(Cl)c2)nn1 | 30.55% | 41.1% | 11.4% |  |  |  |  |  |  |
| OCc1cn(-c2ccccc2)nn1 | 20.98% | 30.1% | 10.9% |  |  |  |  |  |  |
| CCCCOCc1cn(-c2ccc(Cl)cc2)nn1 | 30.33% | 15.1% | 35.8% |  |  |  |  |  |  |
| O=Cc1cnn(-c2ccccc2)n1 | 41.65% | 42.1% | 31.5% |  |  |  |  |  |  |
| CCCCCC(=O)OCc1cn(-c2ccc(Cl)cc2)nn1 | 34.19% | 2.2% | 11.1% |  |  |  |  |  |  |
| CC(=O)OCc1cn(-c2cc(Cl)cc(Cl)c2)nn1 | 45.33% | 29.4% | 65.2% |  |  |  |  |  |  |
| CCCCCCCCCC(=O)OCc1cnn(-c2ccccc2)n1 | 42.5% | 19.2% | 29.5% |  |  |  |  |  |  |
| CCCCCCCCCC(=O)OCc1cn(-c2ccc(Cl)cc2)nn1 | 8% | 78% | 76% | Dose-dependent effect | 107 nM | 103 nM | 2840 nM | 108 nM |  |
| OCc1cn(-c2ccc(Cl)cc2)nn1 | 15.57% | 26.1% | 22.5% |  |  |  |  |  |  |
| O=C(OCc1cnn(-c2ccccc2)n1)C1CCCC1 | 43.04% | 10.2% | 29.6% |  |  |  |  |  |  |
| O=C(OCc1cn(-c2cc(Cl)cc(Cl)c2)nn1)c1ccccc1 | 24.02% | 2.96% | 14.2% |  |  |  |  |  |  |
| CCCOCc1cn(-c2cc(Cl)cc(Cl)c2)nn1 | 14.03% | 33.7% | 24% |  |  |  |  |  |  |
| CCCCCCCCCC(=O)OCc1cn(-c2ccccc2)nn1 | 42.53% | 23.2% | 60% |  |  |  |  |  |  |
| OCc1cn(-c2cc(Cl)ccc2Cl)nn1 | 12.09% | 38.1% | 28.3% |  |  |  |  |  |  |
| CC(=O)OCc1cn(-c2ccc(Cl)cc2)nn1 | 19.66% | 9.89% | 23.2% |  |  |  |  |  |  |
| CCOCc1cn(-c2cc(Cl)cc(Cl)c2)nn1 | 34% | 51.2% | 36.5% |  |  |  |  |  |  |
| O=C(OCc1cn(-c2cc(Cl)ccc2Cl)nn1)c1ccccc1 | 26.66% | 3% | 11% |  |  |  |  |  |  |
| O=Cc1cn(-c2cc(Cl)ccc2Cl)nn1 | 13.73% | 44% | 36.7% |  |  |  |  |  |  |
| O=C(OCc1cn(-c2ccccc2)nn1)c1ccccc1 | 58.1% | 16.1% | 32.1% |  |  |  |  |  |  |
| CCCOCc1cn(-c2ccccc2)nn1 | 14.66% | 20.1% | 25.1% |  |  |  |  |  |  |

| SMILES | Activity (Peritoneal macrophage) | inhibition [1] | inhibition [2] | inhibition [3] | IC50 (P2X purinoceptor 7 [4]) | IC50 (P2X purinoceptor 7 [5]) | CC50 at 24 h [6] | IC50 (P2X purinoceptor 7 [7]) | inhibition [8] |
| --- | --- | --- | --- | --- | --- | --- | --- | --- | --- |
| O/N=C/c1cn(-c2ccccc2)nn1 | 28.59% | 64.3% | 58% |  |  |  |  |  |  |
| CCOCc1cn(-c2ccc(OC)cc2)nn1 | 20.66% | 45% | 44.8% |  |  |  |  |  |  |
| CCCCC(=O)OCc1cn(-c2ccc(OC)cc2)nn1 | 46.3% | 8.15% |  |  |  |  |  |  |  |
| CCOCc1cnn(-c2ccccc2)n1 | 26.49% | 79.1% | 70% |  |  |  |  |  | Active |
| COc1ccc(-n2cc(COC(C)=O)nn2)cc1 | 15% | 9.12% | 29.4% |  |  |  |  |  |  |
| CCCCCCCCCC(=O)OCc1cn(-c2cc(Cl)ccc2Cl)nn1 | 10% | 1.17% | 9.86% |  |  |  |  |  |  |
| CC(=O)OCc1cnn(-c2ccccc2)n1 | 38.5% | 80.1% | 73.5% |  |  |  |  |  |  |
| O=C(OCc1cnn(-c2ccccc2)n1)c1ccccc1 | 36.94% | 88.2% | 81.3% |  |  |  |  |  |  |
| O=C(OCc1cn(-c2cc(Cl)ccc2Cl)nn1)C1CCCC1 | 22.66% | 7.28% | 20.6% |  |  |  |  |  |  |
| O/N=C/c1cn(-c2cc(Cl)cc(Cl)c2)nn1 | 29.47% | 62.1% | 58% |  |  |  |  |  |  |
| CCCOCc1cn(-c2ccc(OC)cc2)nn1 | 13.03% | 35.8% | 15.6% |  |  |  |  |  |  |
| CCCOCc1cn(-c2ccc(Cl)cc2)nn1 | 26.66% | 62.4% | 32.5% |  |  |  |  |  |  |
| CC(=O)OCc1cn(-c2cc(Cl)ccc2Cl)nn1 | 32% | 71.2% | 76.6% |  |  |  |  |  |  |
| CCCCOCc1cn(-c2ccc(OC)cc2)nn1 | 27.66% | 51.3% | 31.4% |  |  |  |  |  |  |
| O/N=C/c1cnn(-c2ccccc2)n1 | 12.66% | 94.3% | 83% | Dose-dependent effect | 349 nM | 457 nM | 250 nM | 897 nM | Active |
| COc1ccc(-n2cc(C=O)nn2)cc1 | 17.92% | 50.3% | 44.3% |  |  |  |  |  |  |
| O=Cc1cn(-c2ccccc2)nn1 | 10.51% | 95.3% | 84.6% | Dose-dependent effect | 167 nM | 103 nM | 3740 nM | 478 nM | Active |
| CCCOCc1cnn(-c2ccccc2)n1 | 13.33% | 41.2% | 26.6% |  |  |  |  |  |  |
| CCCCOCc1cn(-c2ccccc2)nn1 | 32.33% | 67.5% | 78.1% |  |  |  |  |  | Active |
| COc1ccc(-n2cc(COC(=O)c3ccccc3)nn2)cc1 | 10.66% | 10.6% | 24.4% |  |  |  |  |  |  |
| CC(=O)OCc1cn(-c2ccccc2)nn1 | 36.39% | 81% | 84% |  |  |  |  |  |  |
| CCCOCc1cn(-c2cc(Cl)ccc2Cl)nn1 | 22.66% | 46.6% | 24% |  |  |  |  |  |  |
| CCOCc1cn(-c2cc(Cl)ccc2Cl)nn1 | 42.66% | 45.3% | 75.5% |  |  |  |  |  |  |
| O=C(OCc1cn(-c2ccc(Cl)cc2)nn1)c1ccccc1 | 45.73% | 26.8% | 60.6% |  |  |  |  |  |  |
